Earlier results, collected in patent US20140140997A1, “Methods of Treating Retroviral Infections in Felines” (CytoDyn Inc., priority 2011, published 2014).

Columns and labels:
LFA-1 = details: Wang et al. 2009; Almog 2003
CD11a binding to ICAM-1 = details: Weitz-Schmidt et al. 2004; Welzenbach et al. 2002

Row | Structure (SMILES) | inhibition of LFA-1 activation (LFA-1) | prevention of CD11a binding to ICAM-1 (CD11a binding to ICAM-1)
1 | CC[C@H](C)C(=O)O[C@H]1C[C@@H](C)C=C2C=C[C@H](C)[C@H](CC[C@@H]3C[C@@H](O)CC(=O)O3)[C@H]21 [Lovastatin, (1S,3R,7S,8S,8aR)-8-{2-[(2R,4R)-4-hydroxy-6-oxooxan-2-yl]ethyl}-3,7-dimethyl-1,2,3,7,8,8a-hexahydronaphthalen-1-yl (2S)-2-methylbutanoate] | inhibit LFA-1 activation | 
2 | CCC(C)(C)C(=O)O[C@H]1C[C@@H](C)C=C2C=C[C@H](C)[C@H](CC[C@@H]3C[C@@H](O)CC(=O)O3)[C@H]21 [simvastatin, (1S,3R,7S,8S,8aR)-8-(2-((2R,4R)-4-hydroxy-6-oxotetrahydro-2H-pyran-2-yl)ethyl)-3,7-dimethyl-1,2,3,7,8,8a-hexahydronaphthalen-1-yl 2,2-dimethylbutanoate] | inhibit LFA-1 activation | 
3 | O=C(NCc1cccc(O)c1)c1cc(Cl)c(C(=O)N[C@@H](CNC(=O)c2cc(O)cc(O)c2)C(=O)O)c(Cl)c1 [XVA143] |  | preventing the ability of CD11a to bind to ICAM-1
4 | CC[C@H](C)C(=O)O[C@H]1C[C@@H](C)C=C2C=C[C@H](C)[C@H](CC[C@@H]3C[C@H](CC(=O)NC)N(Cc4ccc(O)c(OC)c4)C(=O)O3)[C@H]21 [LFA878] |  | preventing the ability of CD11a to bind to ICAM-1
